# Results reported in paper PMC3547949, “The Immunosuppressive Agent Mizoribine Monophosphate Is an Inhibitor of the Human RNA Capping Enzyme” (PLoS ONE, 2013).
# pIC50: −log10 of the molar value. Where two headings read alike, the source gives them in different places.
# Experiments:
# [1] = system: HEK 293T cells; experiment: Inhibition of mRNA cap formation in cells (firefly luciferase reporter); details: 40 µM or 120 µM mizoribine, all cell lines, versus untreated cells
# [2] = parameters: method as in PMID 19336917, PMID 15773958, PMID 11896891, PMID 12036371; details: cited from earlier work
# [3] = target: T1, human RNA capping enzyme (HCE) (Homo sapiens, UniProt O60942); experiment: Complete RNA capping reaction (RTase+GTase) of a 5′-triphosphate RNA; format: biochemical
# T1 construct: full-length bifunctional HCE protein (amino acid 1–597); 6-His (N); made in house; host or cells: Escherichia coli BL21(DE3), pET28a
# Method: Reaction mixtures containing 5 µM [α-^32P]GTP, 5 µM of 5′-triphosphate RNA, 0.1 µM HCE, 50 mM Tris-HCl, pH 7.5, 5 mM MgCl2, 500 µM DTT, 0.5 ng/µl pyrophosphatase (Roche), and 1 U of RNAse Out (Invitrogen) were incubated for 15 min at 37°C. Reactions were stopped by the addition of 20 µl of phenol-chloroform. 10 µl of loading dye (97% formamide) was added to the aqueous phase and submitted to electrophoresis on a denaturing 10% polyacrylamide gel. Formation of the ^32P-radiolabeled GpppRNA was quantified with a PhosphorImager.
# In order to investigate if MZP could inhibit the RNA capping reaction, we initially addressed its impact on the complete RNA capping reaction (RTase+GTase). A cold 5′-triphosphate RNA was incubated in the presence of HCE, [α-^32P]GTP, magnesium and increasing concentrations of MZP. […] To ensure that the inhibition by MZP was specific, the reaction was performed in the presence of increasing concentrations of GMP which is chemically related to MZP.
# [4] = target: T2, A103R (Paramecium bursaria Chlorella virus 1, UniProt Q84424); format: biochemical, Chlorella virus (PBCV-1)
# [5] = target: T3, HCE (Homo sapiens, UniProt O60942); experiment: MZP transfer onto an acceptor RNA (cap donor substrate test); format: biochemical; details: 2 mM MZP, 2 h 37°C
# T3 construct: full-length bifunctional HCE protein (amino acid 1–597); 6-His (N); made in house; host or cells: Escherichia coli BL21(DE3), pET28a
# Method: Reaction mixtures containing 50 mM Tris-HCl, pH 7.5, 5 mM MgCl2, 500 µM DTT, 0.7 ng/µl pyrophosphatase (Roche), and 1 U of RNAse Out (Invitrogen), 1 µM of 5′-diphosphate RNA substrate (32 nt) harboring a α-^32P-radiolabeled 5′-phosphate, 0.2 µM HCE were incubated in absence or in presence of 2 mM GTP or MZP for 2 h at 37°C. The reaction pH was adjusted to 5.2 with 50 mM NaOAc followed by the addition of 5 µg of Nuclease P1 and incubation at 37°C for 60 min. The digestion were further adjusted with 50 mM Tris-HCl to pH 8.0, and digested with 1 U of alkalie phosphatase (Roche) for 30 min at 37°C. The reaction products were analyzed by thin-layer chromatography (TLC) on a polyethyleneimine-cellulose plate developed with 0.4 M ammonium sulfate.
# Supplementary file pone.0054621.s002.tif: Figure S2 MZP as a potential cap donor substrate for HCE. A 5′-diphosphate acceptor RNA initiating with a [α-^32P] guanosine was incubated in absence (lane 1) or in presence of MZP (lane 2) or GTP (lane 3) and HCE. The capping reaction was sequentially submitted to nuclease P1 then alkaline phosphatase prior to analysis by TLC on a polyethyleneimine-cellulose plate. An autoradiogram of the plate is shown. The locations of the origin and GpppG product are indicated by arrows (right). (TIF) Click here for additional data file.
# [6] = target: T3, HCE; experiment: Enzyme-GMP (EpG) complex formation, first GTase step; format: biochemical
# Method: The enzyme-GMP complex formation assays were carried out for 3 min at 37°C in a buffer containing 1 µM [α-^32P]GTP, 4 µM HCE, 50 mM Tris-HCl, pH 7.5, 5 mM MgCl2, 500 µM DTT, 0.5 ng/µl pyrophosphatase (Roche), and various concentration of MZP (as indicated). The reactions were stopped by the addition of 5 µl of loading dye (50 mM EDTA, 2% β-mercaptoethanol, 1% SDS) and analyzed on a 12% polyacrylamide gel containing 0.1% SDS. The formation of the radiolabeled HCE-[α-^32P]GMP covalent complex was quantified with a PhosphorImager. Similar experiments were conducted using only the GTase domain of HCE (HCE-G229–597). Alternatively, equimolar concentrations of MgCl2 to MZP were added to the reaction in addition to the base 5 mM MgCl2 from the buffer (MZP✯Mg^2+).
# We next set out to identify which step (if any) of the GTase reaction is more susceptible to MZP inhibition. In order to investigate the inhibitory potency of MZP on HCE-GMP complex formation (first step), HCE was incubated with [α-^32P]GTP, magnesium and increasing concentrations MZP. […] The formation of the EpG covalent complex in single turnover condition was analyzed by SDS-PAGE and quantified by phosphorimaging. […] Nevertheless, MZP inhibition of the EpG complex formation is weak and could not be solely responsible for the global inhibitory potency of MZP.
# [7] = system: HCE GTase activity; experiment: Complete two-step RNA guanylyltransferase (GTase) reaction on 5′-diphosphate RNA; format: biochemical, human; details: complete GTase reaction; HCE vs D1R, A103R, Ceg1
# [8] = target: T4, HCE GTase activity (Homo sapiens, UniProt O60942); experiment: as above; format: biochemical
# T4 construct: full-length bifunctional HCE protein (amino acid 1–597); 6-His (N); made in house; host or cells: Escherichia coli BL21(DE3), pET28a
# [9] = target: T3, HCE; experiment: GMP transfer on a 5′-diphosphate RNA, second GTase step; format: biochemical; details: single turnover
# Method: Formation of the enzyme-GMP complex was initially performed for 15 min at 37°C in a buffer containing 1.5 µM [α-^32P]GTP, 1 µM HCE, 70 mM Tris-HCl, pH 7.5, 7.5 mM MgCl2, 70 µM DTT, 0.7 ng/µl pyrophosphatase (Roche), and 1 U of RNAse Out (Invitrogen). The transfer reaction was then initiated by adding a 5′-diphosphate RNA (32 nt) to a final concentration of 0.5 µM with various concentration of MZP (as indicated). After 30 sec at 37°C, the transfer reaction was stopped by the addition of 20 µl of phenol-chloroform. 10 µl of loading dye (97% formamide) was added to the aqueous phase and submitted to electrophoresis on a denaturing 10% polyacrylamide gel. The formation of the ^32P-radiolabeled GpppRNA was quantified with a PhosphorImager.
# We next investigated if the second step of the GTase reaction could be impaired by MZP. EpG complex formation was allowed to initially form upon incubation of HCE with excess [α-^32P]GTP, magnesium and pyrophosphatase. Next, various concentrations of MZP and a cold 5′-diphosphate RNA were added to initiate the transfer of the [α-^32P]GMP moiety onto the RNA in single turnover condition.
# [10] = target: T5, D1R (Vaccinia virus, UniProt P04298); experiment: Enzyme-GMP (EpG) complex formation, vaccinia virus GTase; format: biochemical
# [11] = target: T6, Ceg1 (Saccharomyces cerevisiae, UniProt Q01159); experiment: Complete GTase reaction, yeast GTase; format: biochemical; details: 0,5 µM Ceg1
# T6 sequence (Q01159 1-459): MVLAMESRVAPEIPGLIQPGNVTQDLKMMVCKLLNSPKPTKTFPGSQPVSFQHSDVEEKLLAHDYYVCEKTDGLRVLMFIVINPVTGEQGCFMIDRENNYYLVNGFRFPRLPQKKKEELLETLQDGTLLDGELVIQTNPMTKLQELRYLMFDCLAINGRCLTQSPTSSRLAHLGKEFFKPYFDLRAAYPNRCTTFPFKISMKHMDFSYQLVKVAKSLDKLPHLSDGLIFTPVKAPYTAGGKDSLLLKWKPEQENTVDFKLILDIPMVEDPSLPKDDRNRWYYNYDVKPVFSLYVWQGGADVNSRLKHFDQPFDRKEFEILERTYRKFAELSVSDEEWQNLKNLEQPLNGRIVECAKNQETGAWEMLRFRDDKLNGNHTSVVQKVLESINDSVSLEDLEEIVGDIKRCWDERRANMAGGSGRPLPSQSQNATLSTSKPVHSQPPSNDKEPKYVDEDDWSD
# [12] = target: T7, HCE RTase activity (Homo sapiens, UniProt O60942); experiment: RNA triphosphatase (RTase) assay; format: biochemical; details: MZP up to 10 mM, full-length HCE
# T7 construct: full-length bifunctional HCE protein (amino acid 1–597); 6-His (N); made in house; host or cells: Escherichia coli BL21(DE3), pET28a
# Method: Reaction mixtures containing 50 mM Tris-HCl, pH 7.5, 5 mM MgCl2, 500 µM DTT, 3 µM of γ-^32P-radiolabeled 5′-triphosphate RNA substrate (32 nt), 0.1 µM HCE, and various concentration of MZP (as indicated) were incubated for 10 min at 37°C. The reactions were stopped by the addition of 2 µl of 5 M formic acid. Aliquots of each sample were analyzed on polyethyleneimine-cellulose thin-layer chromatography (TLC) plate, and developed with 0.5 M LiCl and 1 M formic acid. The release of ^32Pi was quantified by scanning the TLC plates with a PhosphorImager.
# We next investigated the susceptibility of the RTase domain of HCE to MZP inhibition. To specifically monitor the effect of MZP on the RTase activity, a γ-^32P-radiolabeled 5′-triphosphate RNA was incubated with HCE and magnesium. RTase activity was monitored through the analysis of the ^32Pi product released from the radiolabeled RNA by TLC and autoradiography.
# [13] = target: T5, D1R; experiment: Complete GTase reaction, vaccinia virus GTase; format: biochemical
# [14] = target: T6, Ceg1; experiment: Enzyme-GMP (EpG) complex formation, yeast GTase; format: biochemical; details: GTase first step, compared with other GTases
# [15] = target: T2, A103R; format: biochemical, Chlorella virus (PBCV-1); remark: listed apart in the source
# [16] = system: HCE-G229–597 (GTase domain of HCE); experiment: Complete GTase reaction with isolated GTase domain; format: biochemical, human
# T3 sequence (O60942 whole entry): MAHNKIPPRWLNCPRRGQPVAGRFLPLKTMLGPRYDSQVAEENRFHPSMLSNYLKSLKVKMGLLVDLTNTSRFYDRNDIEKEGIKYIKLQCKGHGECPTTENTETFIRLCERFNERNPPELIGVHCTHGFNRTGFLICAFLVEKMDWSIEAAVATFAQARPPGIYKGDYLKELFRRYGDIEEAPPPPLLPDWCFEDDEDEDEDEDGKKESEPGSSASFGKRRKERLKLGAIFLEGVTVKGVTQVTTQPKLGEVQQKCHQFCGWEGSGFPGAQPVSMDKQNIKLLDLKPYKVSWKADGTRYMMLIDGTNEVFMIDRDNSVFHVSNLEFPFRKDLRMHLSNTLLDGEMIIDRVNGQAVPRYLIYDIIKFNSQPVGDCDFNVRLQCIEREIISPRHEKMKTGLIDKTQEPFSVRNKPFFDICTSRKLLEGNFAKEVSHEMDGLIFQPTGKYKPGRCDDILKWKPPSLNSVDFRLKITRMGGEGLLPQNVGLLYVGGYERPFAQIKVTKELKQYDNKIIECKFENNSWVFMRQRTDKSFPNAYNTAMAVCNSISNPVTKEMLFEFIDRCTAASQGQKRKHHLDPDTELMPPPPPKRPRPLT
# T2 sequence (Q84424 whole entry, stated change not applied): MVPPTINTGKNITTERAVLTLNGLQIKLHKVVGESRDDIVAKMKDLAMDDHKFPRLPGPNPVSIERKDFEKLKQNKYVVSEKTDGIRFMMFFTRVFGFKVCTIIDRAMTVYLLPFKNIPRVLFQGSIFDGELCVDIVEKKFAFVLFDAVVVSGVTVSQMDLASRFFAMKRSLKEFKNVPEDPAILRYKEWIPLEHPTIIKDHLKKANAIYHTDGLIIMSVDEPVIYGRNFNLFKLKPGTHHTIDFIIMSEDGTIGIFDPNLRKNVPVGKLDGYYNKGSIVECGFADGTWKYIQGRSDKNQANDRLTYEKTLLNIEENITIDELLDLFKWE
# T4 sequence (O60942 whole entry): as the sequence (O60942 whole entry) above
# T1 sequence (O60942 whole entry): as above
# T7 sequence (O60942 whole entry): as above
structure (smiles),measurement,setting,value
NC(=O)c1ncn([C@@H]2O[C@H](CO)[C@@H](O)[C@H]2O)c1O [mizoribine],effect on reporter protein expression,[1],global reduction in protein expression
same,binding to serum proteins,[2],2.3%
Nc1nc2c(ncn2[C@@H]2O[C@H](COP(=O)(O)O)[C@@H](O)[C@H]2O)c(=O)[nH]1 [GMP],reduction of RNA capping,[3]; GMP concentrations as high as 10 mM,≤ 25%
"NC(=O)c1ncn([C@@H]2O[C@H](COP(=O)(O)O)[C@@H](O)[C@H]2O)c1O [MZP, Mizoribine monophosphate]",pIC50,[4],3.12
same,pIC50,"[3]; 0.1 µM HCE, 5 µM GTP, 5 µM 5′-triphosphate RNA, 5 mM MgCl2, 15 min 37°C",3.82
same,use as substrate and transfer onto acceptor RNA,[5],not able to use the MZP as a substrate
same,"mechanism of inhibition, EpG formation","[6]; Lineweaver-Burk, maximal velocity unaffected by MZP",competitive
same,pIC50,"[6]; single turnover, 4 µM HCE, 1 µM GTP, 3 min 37°C",2.52
same,"difference in susceptibility, HCE versus other GTases",[7],5-to 25 fold
same,"mechanism of inhibition, complete GTase reaction","[8]; Lineweaver-Burk, Km for GTP independent of MZP concentration",non-competitive
same,pIC50,"[8]; steady-state, 5′-diphosphate RNA, full-length HCE",4.10
same,impact on GMP transfer to acceptor RNA (second GTase step),[9],only has a minor impact
same,pIC50,[10],2.52
same,pIC50,[11],< 2.70
same,effect on RTase activity,[12],does not affect
same,pIC50,[13],3.30
same,inhibition of EpG formation,[14],slightly less affected
same,pIC50,[15],2.70
same,decrease in potency versus full-length HCE,[16],10 fold
